Biological target: casein kinase 1 epsilon (CK1 epsilon) (Homo sapiens (Human), UniProt P49674)
Assay: Test A: inhibitory activity on CK1 epsilon, casein phosphorylation assay on ATP-33P filter plate
Assay type: biochemical
Details: IC50 values or IC50 ranges (result of several experiments), ATP 10 μM final
Experimental: The capacity of the compounds of the invention to inhibit the phosphorylation of casein by casein kinase 1 epsilon and/or delta may be evaluated according to the procedures described in document US 2005/0 131 012.
Test A: Inhibitory Activity on CK1 Epsilon Measured by Assay on an ATP-^33P Filter Plate
The effect of the compounds on inhibition of the phosphorylation of casein by the enzyme casein kinase 1 epsilon (CK1 epsilon) is measured, using a casein assay via filtration of ATP-^33P in vitro.
Casein kinase 1 epsilon (0.58 mg/ml) is obtained via fermentation and purification processes performed according to methods that are well known to those skilled in the art, or may also be obtained from Invitrogen Corporation™ (human CK1 epsilon).
The compounds are tested at five different concentrations so as to generate IC50 values, i.e. the concentration at which a compound is capable of inhibiting the enzymatic activity by 50%, or alternatively the percentage of inhibition at a concentration of 10 micromolar.
“U”-bottomed Falcon plates are prepared by placing 5 μL of solutions of the compounds according to the invention at concentrations of 10, 1, 0.1, 0.01 or 0.001 μM in different wells. The solutions of the compounds according to the invention at these various concentrations are prepared by diluting in a test buffer (Tris 50 mM pH 7.5, MgCl2 […], DTT 2 mM and EGTA 1 mM) a stock solution in DMSO at a concentration of 10 mM. Next, 5 μL of dephosphorylated casein are added to a final concentration of 0.2 μg/μL, 20 μL of CK1 epsilon to a final concentration of 3 ng/μL, and 20 μL of ATP-^33P to a final concentration of 0.02 μCi/μL mixed with cold ATP (10 μM final—approximately 2×10^6 CPM per well). The final total test volume per well is equal to 50 μL.
The “U”-bottomed Falcon® test plate mentioned above is vortexed, and then incubated at room temperature for 2 hours. After 2 hours the reaction is stopped by adding an ice-cold solution of 65 μL of cold ATP (2 mM) prepared in test buffer.
100 μL of the reaction mixture are then transferred from the “U”-bottomed Falcon® plate into Millipore® MAPH filter plates, preimpregnated with 25 μL of ice-cold 100% TCA.
The Millipore MAPH filter plates are agitated gently and are left to stand at room temperature for at least 30 minutes to precipitate the proteins.
After 30 minutes, the filter plates are sequentially washed and filtered with 2×150 μL of 20% TCA, 2×150 μL of 10% TCA and 2×150 μL of 5% TCA (6 washes in total per plate/900 μL per well).
The plates are left to dry overnight at room temperature. Next, 40 μL of Microscint-20 Packard® scintillation liquid are added per well and the plates are closed in a leaktight manner. The radiation emitted by each well is then measured for 2 minutes in a TopCount NXT Packard® scintillation counter, in which the values of CPM/well are measured.
The percentage inhibition of the capacity of the enzyme to phosphorylate the substrate (casein) is determined for each concentration of test compound. These inhibition data expressed as percentages are used to calculate the IC50 value for each compound compared with the controls.
The kinetic studies determined the KM value for ATP as being 21 μM in this test system.
Table 2 below gives the IC50 values or the IC50 inhibition ranges (result of several experiments) for the phosphorylation of Casein Kinase 1 Epsilon for a number of compounds according to the invention.

Sequence of casein kinase 1 epsilon (CK1 epsilon) (P49674 whole entry): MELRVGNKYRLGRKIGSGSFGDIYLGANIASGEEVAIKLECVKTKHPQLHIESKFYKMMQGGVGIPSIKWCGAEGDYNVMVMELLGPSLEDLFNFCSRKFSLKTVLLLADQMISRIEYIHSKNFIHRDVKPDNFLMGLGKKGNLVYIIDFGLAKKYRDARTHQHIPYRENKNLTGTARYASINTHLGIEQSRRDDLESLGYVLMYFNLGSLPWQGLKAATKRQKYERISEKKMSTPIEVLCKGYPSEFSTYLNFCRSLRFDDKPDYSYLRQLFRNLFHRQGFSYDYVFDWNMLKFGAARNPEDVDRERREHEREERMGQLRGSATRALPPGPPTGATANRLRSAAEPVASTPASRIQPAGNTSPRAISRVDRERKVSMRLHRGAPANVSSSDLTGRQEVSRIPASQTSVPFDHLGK

| Structure (SMILES) | IC50 [nM] |
| --- | --- |
| CC(C)(C)NC(=O)N1CCn2c(c(C(N)=O)c(-c3ccc(C(=O)N4CCCC4)cc3)c2C2CC2)C1 [Compound 19, N^2-tert-butyl-6-cyclo-propyl-7-[4-(pyrrolidin-1-ylcarbonyl)phenyl]-3,4-dihydropyrrolo[1,2-a]pyrazine-2,8(1H)-dicarboxamide] | 587 |
| CC(C)(C)NC(=O)N1CCn2c(c(C(N)=O)c(-c3cccc(C(F)(F)F)c3)c2C2CC2)C1 [Compound 16, N^2-tert-butyl-6-cyclo-propyl-7-[3-(trifluoromethyl)phenyl]-3,4-dihydropyrrolo[1,2-a]pyrazine-2,8(1H)-dicarboxamide] | 19 to 57 |
| Cc1cccc(-c2c(C(N)=O)c3n(c2C2CC2)CCN(C(=O)NC(C)(C)C)C3)c1 [Compound 11, N^2-tert-butyl-6-cyclo-propyl-7-(3-methylphenyl)-3,4-dihydropyrrolo[1,2-a]pyrazine-2,8(1H)-dicarboxamide] | 3 to 6 |
| CN(C)C(=O)c1cccc(-c2c(C(N)=O)c3n(c2C2CC2)CCN(C(=O)NC(C)(C)C)C3)c1 [Compound 17, N^2-tert-butyl-6-cyclo-propyl-7-[3-(dimethylcarbamoyl)phenyl]-3,4-dihydropyrrolo[1,2-a]pyrazine-2,8(1H)-dicarboxamide] | 958 |
| CC(C)(C)NC(=O)N1CCn2cc(-c3ccccc3)c(C(N)=O)c2C1 [Compound 1, N^2-tert-butyl-7-phenyl-3,4-dihydropyrrolo[1,2-a]pyrazine-2,8(1H)-dicarboxamide] | 12 to 35 |
| COc1ccc(-c2c(C(N)=O)c3n(c2C2CC2)CCN(C(=O)NC(C)C)C3)cc1 [Compound 8, 6-cyclo-propyl-7-(4-methoxyphenyl)-N^2-(iso-propyl)-3,4-dihydropyrrolo[1,2-a]pyrazine-2,8(1H)-dicarboxamide] | 221 to 273 |
| CCCCOc1ccc(-c2c(C(N)=O)c3n(c2C2CC2)CCN(C(=O)NC(C)(C)C)C3)cc1 [Compound 38, 7-(4-butoxyphenyl)-N^2-tert-butyl-6-cyclo-propyl-3,4-dihydropyrrolo[1,2-a]pyrazine-2,8(1H)-dicarboxamide] | 152 |
| COc1ccc(-c2c(C(N)=O)c3n(c2C2CC2)CCN(C(=O)NC2CC2)C3)cc1 [Compound 6, N^2-6-di-cyclo-propyl-7-(4-methoxyphenyl)-3,4-dihydropyrrolo[1,2-a]pyrazine-2,8(1H)-dicarboxamide] | 28 to 57 |
| Cc1c(-c2ccc(Oc3ccccc3)cc2)c(C(N)=O)c2n1CCN(C(=O)NC(C)(C)C)C2 [Compound 5, N^2-tert-butyl-6-methyl-7-(4-phenoxyphenyl)-3,4-dihydropyrrolo[1,2-a]pyrazine-2,8(1H)-dicarboxamide] | 34 to 78 |
| CC(C)(C)NC(=O)N1CCn2c(c(C(N)=O)c(-c3cccc(C#N)c3)c2C2CC2)C1 [Compound 21, N^2-tert-butyl-7-(3-cyanophenyl)-6-cyclo-propyl-3,4-dihydropyrrolo[1,2-a]pyrazine-2,8(1H)-dicarboxamide] | 26 to 46 |
| CC(C)(C)NC(=O)N1CCn2c(c(C(N)=O)c(-c3ccc(C4CCCCC4)cc3)c2C2CC2)C1 [Compound 14, N^2-tert-butyl-7-(4-cyclo-hexylphenyl)-6-cyclo-propyl-3,4-dihydropyrrolo[1,2-a]pyrazine-2,8(1H)-dicarboxamide] | 136 to 1090 |
| CC(C)(C)NC(=O)N1CCn2c(c(C(N)=O)c(-c3ccc(C#N)cc3)c2C2CC2)C1 [Compound 22, N^2-tert-butyl-7-(4-cyanophenyl)-6-cyclo-propyl-3,4-dihydropyrrolo[1,2-a]pyrazine-2,8(1H)-dicarboxamide] | 25 |

Continued, values first:

| IC50 [nM] | Structure (SMILES) |
| --- | --- |
| 84 | CC(C)(C)NC(=O)N1CCn2c(c(C(N)=O)c(-c3ccc(C(F)(F)F)cc3)c2C2CC2)C1 [Compound 24, N^2-tert-butyl-6-cyclo-propyl-7-[4-(trifluoromethyl)phenyl]-3,4-dihydropyrrolo[1,2-a]pyrazine-2,8(1H)-dicarboxamide] |
| 4 | CN(C)c1ccc(-c2c(C(N)=O)c3n(c2C2CC2)CCN(C(=O)NC(C)(C)C)C3)cc1 [Compound 28, N^2-tert-butyl-6-cyclo-propyl-7-[4-(dimethylamino)phenyl]-3,4-dihydropyrrolo[1,2-a]pyrazine-2,8(1H)-dicarboxamide] |
| < 1 | CC(C)(C)ON=C1CCC(NC(=O)N2CCn3c(Cl)c(-c4cccc(F)c4)c(C(N)=O)c3C2)CC1 (stereo not drawn) [Compound 87, trans-6-chloro-7-(3-fluorophenyl)-N^2-(4-tert-butyloxyimino-cyclohexyl)-3,4-dihydropyrrolo[1,2-a]pyrazine-2,8(1H)-dicarboxamide] |
| 9 to 24 | NC(=O)c1c(-c2ccccc2)c(Cl)n2c1CN(C(=O)NC1CCS(=O)(=O)C1)CC2 (stereo not drawn) [Compound 101, 6-chloro-N^2-(1,1-dioxydotetrahydrothiophen-3-yl)-7-phenyl-3,4-dihydropyrrolo[1,2-a]pyrazine-2,8(1H)-dicarboxamide] |
| 12 | CC(C)(C)NC(=O)N1CCn2c(c(C(N)=O)c(-c3ccccc3F)c2C2CC2)C1 [Compound 45, N^2-tert-butyl-6-cyclo-propyl-7-(2-fluorophenyl)-3,4-dihydropyrrolo[1,2-a]pyrazine-2,8(1H)-dicarboxamide] |
| 1 to 17 | CC(C)(C)CCNC(=O)N1CCn2c(Cl)c(-c3ccccc3)c(C(N)=O)c2C1 [Compound 72, 6-chloro-N^2-(3,3-dimethylbutyl)-7-phenyl-3,4-dihydropyrrolo[1,2-a]pyrazine-2,8(1H)-dicarboxamide] |
| 65 | Cc1nnc(-c2ccc(-c3c(C(N)=O)c4n(c3C3CC3)CCN(C(=O)NC(C)(C)C)C4)cc2)o1 [Compound 23, N^2-tert-butyl-6-cyclo-propyl-7-[4-(5-methyl-1,3,4-oxadiazol-2-yl)phenyl]-3,4-dihydropyrrolo[1,2-a]pyrazine-2,8(1H)-dicarboxamide] |
| 532 | CC(C)(C)NC(=O)N1CCn2c(c(C(N)=O)c(-c3ccc(NS(C)(=O)=O)cc3)c2C2CC2)C1 [Compound 29, N^2-tert-butyl-6-cyclo-propyl-7-{4-[(methylsulfonyl)amino]phenyl}-3,4-dihydropyrrolo[1,2-a]pyrazine-2,8(1H)-dicarboxamide] |
| 45 | CC(C)(C)CC(C)(C)NC(=O)N1CCn2c(c(C(N)=O)c(-c3ccccc3)c2C2CC2)C1 [Compound 52, 6-cyclo-propyl-7-phenyl-N^2-(2,4,4-trimethylpentan-2-yl)-3,4-dihydropyrrolo[1,2-a]pyrazine-2,8(1H)-dicarboxamide] |
| 1 to 7 | COc1cccc(-c2c(C(N)=O)c3n(c2C2CC2)CCN(C(=O)NC(C)(C)C)C3)c1 [Compound 32, N^2-tert-butyl-6-cyclo-propyl-7-(3-methoxyphenyl)-3,4-dihydropyrrolo[1,2-a]pyrazine-2,8(1H)-dicarboxamide] |
| 23 | CC(C)(C)NC(=O)N1CCn2c(c(C(N)=O)c(-c3cccc(-n4cccn4)c3)c2C2CC2)C1 [Compound 27, N^2-tert-butyl-6-cyclo-propyl-7-[3-(1H-pyrazol-1-yl)phenyl]-3,4-dihydropyrrolo[1,2-a]pyrazine-2,8(1H)-dicarboxamide] |
| 4 to 11 | NC(=O)c1c(-c2cccc(F)c2)c(Cl)n2c1CN(C(=O)NC1CCS(=O)(=O)C1)CC2 (stereo not drawn) [Compound 102, 6-chloro-N^2-(1,1-dioxydotetrahydrothiophen-3-yl)-7-(3-fluorophenyl)-3,4-dihydropyrrolo[1,2-a]pyrazine-2,8(1H)-dicarboxamide] |
